Experimental data reported in article PMC11979273, “A phase I study to evaluate the safety, tolerability, and pharmacokinetics of HEC113995PA·H2O, a novel dual-acting serotonergic antidepressant, in healthy subjects” (Frontiers in Pharmacology, 2025).
Where two headings read alike, the source gives them in different places.

What was measured:
[1] = tested on: mice; assay: Behavioral despair models, mice; type: in vivo; conditions: single, multiple, and chronic administrations, unpublished data
[2] = Multiple ascending-dose (MAD) study, plasma pharmacokinetics; type: in vivo, human; conditions: for Cl/F / CLss/F / Css_max / Rac (AUC), accumulation ratio at steady state / Rac_Cmax, accumulation ratio at steady state / AUC(0-t) / Vd/F / Cmax / MRT inf / AUC / AUC(0-inf) / half-life / concentration at 10 day: mean (SD); for AUC(0-t) / Vd/F / Tmax / Tmax at 10 days / Cmax / MRT inf / AUC / AUC(0-inf) / half-life / concentration at 10 day: both sexes, human, plasma, oral; for MRT inf: read-out: MRT0-∞; for concentration at 10 day: read-out: Css_min
Protocol: Three drug doses (10, 20 and 40 mg) were utilized. A total of 36 healthy subjects of both genders were assigned randomly to the three groups (n = 12), with10 subjects taking HEC113995PA·H2O tablets and 2 taking placebo. The participants in the 10 mg dose group received a single dose daily in the morning after overnight fasting, or a single dose daily after a standard meal in the 20 mg and 40 mg dose groups for 10 consecutive days. Serial blood samples were collected within 0.5 h before drug administration on days 7, 8 and 9, and before and after drug administration on days 1 and 10 to determine plasma concentration and pharmacokinetic characteristics. Safety and tolerability were evaluated on days 4, 8, 13 and 15.
In the first dose group of single ascending-dose study, PK blood samples were collected at 0.5 h before administration and 0.5, 1, 1.5, 2, 2.5, 3, 4, 5, 6, 8, 10, 12, 24, 36, 48, and 72 h after administration. In other SAD groups, MAD groups and food effect study, PK blood samples were collected at 0.5 h before administration, and 1, 2, 3, 4, 5, 6, 7, 8, 10, 12, 24, 48, 72, 96, 120 and 144 h after administration. Approximately 4 mL of venous blood was obtained from each collection and placed in a vacuum collection vessel containing K2EDTA anticoagulant. The blood was centrifuged and packed according to the instruction provided by the Biological Sample Detection and Analysis Unit. Briefly, all samples were centrifuged at 4°C, 1,500 g for 10 min within 0.5 h after blood collection. After centrifugation, the plasma was aliquoted into two cryogenic storage tubes. The first tube (Tube A) contained at least 0.8 mL of plasma for analytical testing, and the remaining plasma is allocated into the backup tube (Tube B). The plasma samples were stored at −80°C within 1 h after aliquoting for further analysis.
The concentration of HEC113995PA·H2O in human plasma samples (K2EDTA) was quantitatively analyzed using the LC-MS/MS method. Plasma samples (50 μL) were processed using protein precipitation with 5 μL deuterated internal standard (HEC124659) and 100 μL acetonitrile. The Shimadzu LCMS-8060 system coupled with a GL Sciences Inc. InertSustain AQ-C18 HP column (50 × 2.1 mm, 3 μm) achieved chromatographic separation through gradient elution using 0.04% TFA aqueous solution (pH 2.1) and acetonitrile at 0.4 mL/min. ESI-positive mode detection employed optimized parameters: 300°C interface temperature, 250°C DL temperature, 3 L/min nebulizer gas, and 400°C heating block temperature.
Using WinNonlin 7.0 for non-compartmental analysis (NCA), pharmacokinetic (PK) parameters were meticulously calculated based on the actual sampling times for plasma, urine, and fecal samples from each subject post-administration. These parameters encompassed a comprehensive range, including the area under the concentration–time curve (AUC), AUC from time zero (pre-dose) to the time of the last measurable concentration (AUC0-t), and AUC from time zero (pre-dose) to infinity (AUC0-∞). Additionally, maximum observed plasma concentration (Cmax), time to achieve maximum plasma concentration (Tmax), terminal elimination half-life (t1/2), elimination rate constant (Ke), apparent volume of distribution (Vd/F), clearance rate (CL/F), and mean residence time (MRT) were also determined. The AUC0-t and AUC0-∞ values were computed using the linear trapezoidal rule method. Tmax and Cmax were ascertained based on the actual observed data. In the context of the multiple ascending-dose study, both the degree of fluctuation (DF) and the accumulation ratio at steady state (Rac) were thoroughly analyzed.

[3] = target: T1, 5-HT1A receptor (Homo sapiens, UniProt P08908); assay: 5-HT1A receptor agonism (EC50, EMAX); type: biochemical; conditions: in vitro; unpublished data
T1 sequence (P08908 1-422): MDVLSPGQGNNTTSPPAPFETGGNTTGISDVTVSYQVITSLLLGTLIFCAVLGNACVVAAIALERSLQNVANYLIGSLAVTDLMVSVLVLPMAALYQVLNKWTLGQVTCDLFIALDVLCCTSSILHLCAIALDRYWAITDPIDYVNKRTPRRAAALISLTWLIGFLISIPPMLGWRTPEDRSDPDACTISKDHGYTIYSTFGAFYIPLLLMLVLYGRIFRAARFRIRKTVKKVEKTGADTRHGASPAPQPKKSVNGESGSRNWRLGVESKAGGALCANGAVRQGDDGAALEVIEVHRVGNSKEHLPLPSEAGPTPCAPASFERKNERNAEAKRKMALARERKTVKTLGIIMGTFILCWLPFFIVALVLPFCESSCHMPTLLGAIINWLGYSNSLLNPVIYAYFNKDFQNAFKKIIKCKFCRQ

[4] = MAD 10 mg (N = 10), D1, fasting
[5] = MAD 20 mg (N = 9), D1, after standard meal
[6] = MAD 20 mg (N = 9), D10, QD after standard meal
[7] = MAD 40 mg (N = 10), D1, after standard meal
[8] = MAD 40 mg (N = 10), D10, QD after standard meal

## Cc1nc(-c2cnc(N3CCN(CCCc4c[nH]c5ccc(C#N)cc45)CC3)nc2)sc1C(N)=O [HEC113995PA·H2O]
[1]
  duration of immobility: significantly reduce
[2]; 10 mg on an empty stomach, low sample size
  gender difference in systemic exposure: no significant gender difference
[2]; 40 mg dose as printed in discussion
  accumulation ratio: 2.4 fold
[2]; 10 to 40 mg daily
  continuous administration until PK steady state: 7 days
[2]; 10–40 mg range, discussion
  accumulation ratios (Rac), range: 1.83–2.41
[2]; 20 and 40 mg following a standard meal, single and multiple administrations
  gender difference in systemic exposure: no apparent gender difference
[2]; [4]
  Cl/F: 9.4 L/h
  Cmax: 30.6 ng/mL
  MRT inf: 40 h
[2]; [5]
  Cl/F: 8.1 L/h
  Cmax: 104 ng/mL
  MRT inf: 25.3 h
[2]; [6]
  CLss/F: 7.27 (0.97) L/h
  Css_max: 202.6 (39.27) ng/mL
  Rac (AUC), accumulation ratio at steady state: 1.83 (0.16)
  Rac_Cmax, accumulation ratio at steady state: 1.96 (0.28)
  AUC: 2790 ng·h/mL
  AUC(0-inf): 5470 ng·h/mL
  half-life: 38.6 h
  concentration at 10 day: 66.8 ng/mL
[2]; [7]
  Cl/F: 8.8 L/h
  Cmax: 208 ng/mL
  MRT inf: 24.3 h
[2]; [8]
  CLss/F: 7.25 (1.4) L/h
  Css_max: 435.6 (87.5) ng/mL
  Rac (AUC), accumulation ratio at steady state: 1.96 (0.35)
  Rac_Cmax, accumulation ratio at steady state: 2.1 (0.4)
  AUC: 5730 ng·h/mL
  AUC(0-inf): 10500 ng·h/mL
  half-life: 30.9 h
  concentration at 10 day: 132 ng/mL
[2]; after multiple administrations, 10, 20, 40 mg groups
  accumulation ratio Rac_Cmax, arithmetic mean range: 1.9546–2.4058
[2]; 10 mg, MAD 10 mg (N = 10), D1, fasting, read-out: AUC0-t
  AUC(0-t): 483 ng·h/mL
[2]; 10 mg, MAD 10 mg (N = 10), D1, fasting, read-out: AUC0–24h
  AUC(0-t): 486 ng·h/mL
[2]; 10 mg, MAD 10 mg (N = 10), D1, fasting, read-out: Vz/F
  Vd/F: 350 L
[2]; 10 mg, MAD 10 mg (N = 10), D1, fasting, median (min, max), read-out: Tmax
  Tmax: 5.5 h
[2]; 10 mg, MAD D10, 10 mg dose group, read-out: Vss/F
  Vd/F: 521 L
[2]; 10 mg, MAD D10, 10 mg dose group, median (min, max)
  Tmax at 10 days: 4.5 h
[2]; 20 mg, MAD 20 mg (N = 9), D1, after standard meal, read-out: AUC0-t
  AUC(0-t): 1520 ng·h/mL
[2]; 20 mg, MAD 20 mg (N = 9), D1, after standard meal, read-out: AUC0–24h
  AUC(0-t): 1530 ng·h/mL
[2]; 20 mg, MAD 20 mg (N = 9), D1, after standard meal, read-out: Vz/F
  Vd/F: 189 L
[2]; 20 mg, MAD 20 mg (N = 9), D1, after standard meal, median (min, max), read-out: Tmax
  Tmax: 5 h
[2]; 20 mg, MAD 20 mg (N = 9), D10, QD after standard meal, read-out: Vss/F
  Vd/F: 402 L
[2]; 20 mg, MAD 20 mg (N = 9), D10, QD after standard meal, median (min, max)
  Tmax at 10 days: 2 h
[2]; 40 mg, MAD 40 mg (N = 10), D1, after standard meal, read-out: AUC0-t
  AUC(0-t): 2920 ng·h/mL
[2]; 40 mg, MAD 40 mg (N = 10), D1, after standard meal, read-out: AUC0–24h
  AUC(0-t): 2930 ng·h/mL
[2]; 40 mg, MAD 40 mg (N = 10), D1, after standard meal, read-out: Vz/F
  Vd/F: 192 L
[2]; 40 mg, MAD 40 mg (N = 10), D1, after standard meal, median (min, max), read-out: Tmax
  Tmax: 5 h
[2]; 40 mg, MAD 40 mg (N = 10), D10, QD after standard meal, read-out: Vss/F
  Vd/F: 321 L
[2]; 40 mg, MAD 40 mg (N = 10), D10, QD after standard meal, median (min, max)
  Tmax at 10 days: 2.5 h
[2]; 40 mg, following a single administration, 10, 20, 40 mg groups, read-out: median time to peak concentration (Tmax), range
  Tmax: 5 to 5.5 h
[2]; MAD D10, 10 mg dose group
  half-life: 39.1 h
  concentration at 10 day: 30 ng/mL
[2]; MAD D10, head prints 20 mg (N = 9)
  AUC(0-inf): 2490 ng·h/mL
[3]
  5-HT1A receptor activity relative to Vortioxetine: comparable activity
  activity in agonizing 5-HT1A receptor relative to HEC61139 (Vilazodone): slightly weaker activity
